Measurements taken from PMC10686834, “Targeting myeloid chemotaxis to reverse prostate cancer therapy resistance” (Nature, 2023).

System: patients with ARSI-resistant mCRPC
Test: Phase 1 trial of AZD5069 plus enzalutamide: safety and tolerability (DLTs, treatment-emergent adverse events, NCI-CTCAE v.4.0)
Assay type: in vivo
Text: The primary trial objective was to evaluate the safety and tolerability of the combination. Key secondary objectives were to evaluate pharmacokinetic–pharmacodynamic parameters and antitumour activity.
Eligible patients were consenting patients aged ≥18 years, who had mCRPC with histologically confirmed prostate adenocarcinoma histology, documented cancer progression at the time of trial entry by Response Evaluation Criteria in Solid Tumors (v.1.1) and/or Prostate Cancer Working Group 2 criteria, and PSA of ≥10 ng ml^−1 at screening.
The dose-escalation phase used a rule-based 3 + 3 design, with an initial three patients enrolled per dose level. If none of the first three patients experienced a DLT, dose escalation proceeded to the next dose level. […] If fewer than two of six patients at any dose level experienced a DLT, dose escalation continued to the next level. If at least two out of up to six patients experienced a DLT, dose escalation stopped and this dose level was defined as the maximum administered dose. Once this maximum administered dose was defined, the maximum tolerated dose (MTD) was confirmed at the dose level below the maximum administered dose. At least six evaluable patients were required to establish the MTD at a specific dose level. […] Intra-patient dose escalation was not permitted. Start of dosing between the first and second patient enrolled to each dose level was staggered by 1 week. Once the MTD was determined in the phase 1 study, the recommended phase 2 dose was determined on the basis of available data, including but not limited to safety and response.
DLTs were defined as described in the study protocol. […] Prophylaxis with growth factor support or antipyretics were not permitted. Investigators determined whether an adverse event was related to the study drugs. If a patient experienced clinically significant and/or unacceptable toxicity, including a DLT, not attributable to the disease or disease-related processes, dosing was interrupted or the dose was reduced and supportive therapy was administered as required.

C[C@@H](Oc1cc(NS(=O)(=O)N2CCC2)nc(SCc2cccc(F)c2F)n1)[C@@H](O)CO [AZD5069]
0 (0) n (%): TEAE Hypophosphataemia, G≥3 (AZD5069 80 mg BD (n=4)) | TEAE Nausea, All G (AZD5069 80 mg BD (n=4)) | TEAE Nausea, G≥3 (AZD5069 80 mg BD (n=4)) | TEAE Oedema genital, All G (AZD5069 80 mg BD (n=4)) | TEAE Oedema genital, G≥3 (AZD5069 80 mg BD (n=4)) | TEAE Platelet decreased, All G (AZD5069 80 mg BD (n=4)) | TEAE Platelet decreased, G≥3 (AZD5069 80 mg BD (n=4)) | TEAE Pruritus, All G (AZD5069 80 mg BD (n=4)) | TEAE Pruritus, G≥3 (AZD5069 80 mg BD (n=4)) | TEAE Skin infection, G≥3 (AZD5069 80 mg BD (n=4)) | TEAE Vomiting, All G (AZD5069 80 mg BD (n=4)) | TEAE Vomiting, G≥3 (AZD5069 80 mg BD (n=4)) | TEAE White blood cell decreased, All G (AZD5069 80 mg BD (n=4)) | TEAE White blood cell decreased, G≥3 (AZD5069 80 mg BD (n=4)) | TEAE Anemia, G≥3 (AZD5069 120 mg BD (n=3)) | TEAE Aphasia, All G (AZD5069 120 mg BD (n=3)) | TEAE Aphasia, G≥3 (AZD5069 120 mg BD (n=3)) | TEAE Arthralgia, All G (AZD5069 120 mg BD (n=3)) | TEAE Arthralgia, G≥3 (AZD5069 120 mg BD (n=3)) | TEAE Aspartate aminotransferase increased, All G (AZD5069 120 mg BD (n=3)) | TEAE Aspartate aminotransferase increased, G≥3 (AZD5069 120 mg BD (n=3)) | TEAE Constipation, G≥3 (AZD5069 120 mg BD (n=3)) | TEAE Death, All G (AZD5069 120 mg BD (n=3)) | TEAE Death, G≥3 (AZD5069 120 mg BD (n=3)) | TEAE Decreased appetite, All G (AZD5069 120 mg BD (n=3)) | TEAE Decreased appetite, G≥3 (AZD5069 120 mg BD (n=3)) | TEAE Diarrhoea, All G (AZD5069 120 mg BD (n=3)) | TEAE Diarrhoea, G≥3 (AZD5069 120 mg BD (n=3)) | TEAE Dry skin, All G (AZD5069 120 mg BD (n=3)) | TEAE Dry skin, G≥3 (AZD5069 120 mg BD (n=3)) | TEAE Fatigue, G≥3 (AZD5069 120 mg BD (n=3)) | TEAE Headache, All G (AZD5069 120 mg BD (n=3)) | TEAE Headache, G≥3 (AZD5069 120 mg BD (n=3)) | TEAE Hypophosphataemia, All G (AZD5069 120 mg BD (n=3)) | TEAE Hypophosphataemia, G≥3 (AZD5069 120 mg BD (n=3)) | TEAE Nausea, G≥3 (AZD5069 120 mg BD (n=3)) | TEAE Oedema genital, All G (AZD5069 120 mg BD (n=3)) | TEAE Oedema genital, G≥3 (AZD5069 120 mg BD (n=3)) | TEAE Platelet decreased, G≥3 (AZD5069 120 mg BD (n=3)) | TEAE Pruritus, All G (AZD5069 120 mg BD (n=3)) | TEAE Pruritus, G≥3 (AZD5069 120 mg BD (n=3)) | TEAE Skin infection, All G (AZD5069 120 mg BD (n=3)) | TEAE Skin infection, G≥3 (AZD5069 120 mg BD (n=3)) | TEAE Vomiting, All G (AZD5069 120 mg BD (n=3)) | TEAE Vomiting, G≥3 (AZD5069 120 mg BD (n=3)) | TEAE White blood cell decreased, All G (AZD5069 120 mg BD (n=3)) | TEAE White blood cell decreased, G≥3 (AZD5069 120 mg BD (n=3)) | TEAE Aphasia, All G (AZD5069 160 mg BD (n=6)) | TEAE Aphasia, G≥3 (AZD5069 160 mg BD (n=6)) | TEAE Arthralgia, All G (AZD5069 160 mg BD (n=6))
1 (17) n (%): TEAE Anemia, G≥3 (AZD5069 160 mg BD (n=6))
2 (67) n (%): TEAE Neutrophil decreased, G≥3 (AZD5069 120 mg BD (n=3))
1 (33) n (%): TEAE Anemia, All G (AZD5069 120 mg BD (n=3)) | TEAE Constipation, All G (AZD5069 120 mg BD (n=3)) | TEAE Fatigue, All G (AZD5069 120 mg BD (n=3)) | TEAE Nausea, All G (AZD5069 120 mg BD (n=3)) | TEAE Platelet decreased, All G (AZD5069 120 mg BD (n=3))
2 (33) n (%): TEAE Anemia, All G (AZD5069 160 mg BD (n=6))
1 (25) n (%): TEAE Hypophosphataemia, All G (AZD5069 80 mg BD (n=4)) | TEAE Neutrophil decreased, G≥3 (AZD5069 80 mg BD (n=4)) | TEAE Skin infection, All G (AZD5069 80 mg BD (n=4))
3 (100) n (%): TEAE Neutrophil decreased, All G (AZD5069 120 mg BD (n=3))
3 (75) n (%): TEAE Neutrophil decreased, All G (AZD5069 80 mg BD (n=4))
